From patent publication US4861788A, “Antibacterial 1-normon-2-yl-heterocyclic compounds” (Beecham Group plc, priority 1983, dated 1989)
In brackets after ≈: the same amount, converted by molar mass. Like-named read-outs stand apart in the source and are kept apart here.

Key:
M. hyopneumoniae JF 435 = assay: MIC against Mycoplasma in vitro (Friis broth with agarose); format: cell-based; details: Mesomycoplasma hyopneumoniae, JF435, 144 h; M. hyopneumoniae JF 435; 6 days at 37° C; read-out: MIC
M. hyopneumoniae Str. 11 = assay: as above; format: cell-based; details: Mesomycoplasma hyopneumoniae
[1] = system: M. hyopneumoniae J2206/183^b; assay: as above; format: cell-based; details: Mesomycoplasma hyopneumoniae, 144 h; M. hyopneumoniae J2206/183^b; 6 days at 37° C; read-out: MIC
M. hyopneumoniae UCD 1 = assay: as above; format: cell-based; details: Mesomycoplasma hyopneumoniae, UCD1, 144 h
M. hyopneumoniae TAM 6N = assay: as above; format: cell-based; details: Mesomycoplasma hyopneumoniae, TAM6N, 144 h; M. hyopneumoniae TAM 6N; 6 days at 37° C; read-out: MIC
M. hyorhinis ATCC 23234 = assay: as above; format: cell-based; details: Mesomycoplasma hyorhinis, ATCC23234, 144 h; M. hyorhinis ATCC 23234; 6 days at 37° C; read-out: MIC
M. gallisepticum S6 = assay: as above; format: cell-based; details: Mycoplasmoides gallisepticum, 144 h; M. gallisepticum S6; 6 days at 37° C; read-out: MIC
M. pneumoniae ATCC 15492 = assay: as above; format: cell-based; details: Mycoplasmoides pneumoniae, ATCC15492, 144 h; M. pneumoniae ATCC 15492; 6 days at 37° C; read-out: MIC
Bacillus subtilis 6633 = assay: MIC against human bacteria in vitro (nutrient agar, chocolated horse blood); format: cell-based; details: human; Bacillus subtilis 6633; 18 hours at 37° C; read-out: MIC
How it was run: (§1)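 In vitro agar-dilution testing: drug dilutions prepared in nutrient medium with chocolated horse blood (5%).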

[2] = system: Corynebacterium xerosis 9755; assay: as above; format: cell-based; details: human; Corynebacterium xerosis 9755; 18 hours at 37° C; read-out: MIC
How it was run: as §1

E. coli ESS = assay: as above; format: cell-based; details: Escherichia coli; human; E. coli ESS; 18 hours at 37° C; read-out: MIC
How it was run: as §1

E. coli NCTC 10418 = assay: as above; format: cell-based; details: Escherichia coli, NCTC10418; human; E. coli NCTC 10418; 18 hours at 37° C; read-out: MIC
How it was run: as §1

[3] = system: Haemophilus influenzae Wy21; assay: as above; format: cell-based; details: human; Haemophilus influenzae Wy21; 18 hours at 37° C; read-out: MIC
How it was run: as §1

K. aerogenes A = assay: as above; format: cell-based; details: Klebsiella aerogenes; human; K. aerogenes A; 18 hours at 37° C; read-out: MIC
How it was run: as §1

P. mirabilis 889 = assay: as above; format: cell-based; details: Proteus mirabilis; human; P. mirabilis 889; 18 hours at 37° C; read-out: MIC
How it was run: as §1

[4] = system: Pasteurella multocida 1633; assay: as above; format: cell-based; details: human; Pasteurella multocida 1633; 18 hours at 37° C; read-out: MIC
How it was run: as §1

[5] = system: Ps. aeruginosa NCTC 10662; assay: as above; format: cell-based; details: Pseudomonas aeruginosa, NCTC10662; human; Ps. aeruginosa NCTC 10662; 18 hours at 37° C; read-out: MIC
How it was run: as §1

Sarcina lutea 8340 = assay: as above; format: cell-based; details: Micrococcus luteus; human; Sarcina lutea 8340; 18 hours at 37° C; read-out: MIC
How it was run: as §1

Staph. aureus Oxford [6] = assay: as above; format: cell-based; details: Staphylococcus aureus; human; Staph. aureus Oxford; 18 hours at 37° C; read-out: MIC
How it was run: as §1

Staph. aureus Russell = assay: as above; format: cell-based; details: Staphylococcus aureus; human; Staph. aureus Russell; 18 hours at 37° C; read-out: MIC
How it was run: as §1

Staph. aureus W2827 = assay: as above; format: cell-based; details: Staphylococcus aureus; human; Staph. aureus W2827; 18 hours at 37° C; read-out: MIC
How it was run: as §1

Strep. agalactiae 2788-B = assay: as above; format: cell-based; details: Streptococcus agalactiae; human; Strep. agalactiae 2788-B; 18 hours at 37° C; read-out: MIC
How it was run: as §1

Strep. faecalis I = assay: as above; format: cell-based; details: Enterococcus faecalis; human; Strep. faecalis I; 18 hours at 37° C; read-out: MIC
How it was run: as §1

[7] = system: Strep. pyogenes R80/421-A; assay: as above; format: cell-based; details: Streptococcus pyogenes; human; Strep. pyogenes R80/421-A; 18 hours at 37° C; read-out: MIC
How it was run: as §1

Strep. spp. 64/848-C = assay: as above; format: cell-based; details: human; Strep. spp. 64/848-C; 18 hours at 37° C; read-out: MIC
How it was run: as §1

S. typhimurium S18 = assay: MIC against veterinary bacteria in vitro (Diagnostic Sensitivity Test Agar); details: Salmonella enterica, 18 h
Experimental: (§2) The activity of the normonyl derivatives of the Examples against various veterinarily important bacteria, was assayed in vitro using two-fold serial dilutions in Diagnostic Sensitivity Test Agar inoculated with 10^4 organisms.

Past. haemolytica PA5 = assay: as above; details: Mannheimia haemolytica, PA5, 18 h
Experimental: as §2

[8] = system: Corynebacterium pyogenes CY1; assay: as above; details: CY1, 18 h
Experimental: as §2

[9] = system: Staph. aureus B4 (pen. resistant); assay: as above; details: Staphylococcus aureus, 18 h
Experimental: as §2

[10] = system: Staph. aureus 152 (pen. sens); assay: as above; details: Staphylococcus aureus, 18 h
Experimental: as §2

Staph. aureus Oxford [11] = assay: as above; details: Staphylococcus aureus, 18 h
Experimental: as §2

[12] = system: Strep. suis (group D) SPS11; assay: as above; details: Streptococcus suis, 18 h
Experimental: as §2

Strep. dysgalactiae SPD1 = assay: as above; details: Streptococcus dysgalactiae, SPD1, 18 h
Experimental: as §2

Row | Structure (SMILES) | MIC (M. hyopneumoniae JF 435) [µg/mL] | MIC [1] [µg/mL] | MIC (M. hyopneumoniae UCD 1) [µg/mL] | MIC (M. hyopneumoniae TAM 6N) [µg/mL] | MIC (M. hyorhinis ATCC 23234) [µg/mL] | MIC (M. gallisepticum S6) [µg/mL] | MIC (M. pneumoniae ATCC 15492) [µg/mL] | MIC (Bacillus subtilis 6633) [µg/mL] | MIC [2] [µg/mL] | MIC (E. coli ESS) [µg/mL] | MIC (E. coli NCTC 10418) [µg/mL] | MIC [3] [µg/mL] | MIC (K. aerogenes A) [µg/mL] | MIC (P. mirabilis 889) [µg/mL] | MIC [4] [µg/mL] | MIC [5] [µg/mL] | MIC (Sarcina lutea 8340) [µg/mL] | MIC (Staph. aureus Oxford [6]) [µg/mL] | MIC (Staph. aureus Russell) [µg/mL] | MIC (Staph. aureus W2827) [µg/mL] | further results
1 | CC(=Cc1nc(-c2ccc([N+](=O)[O-])cc2)no1)CC1OCC(CC2OC2C(C)C(C)O)C(O)C1O (stereo not drawn) [Example 16, 5-(1-Normon-2-yl)-3-(4-nitrophenyl)-1,2,4-oxadiazole] | 1 (≈ 2.04 µM) | 0.5 (≈ 1.02 µM) | 0.5 (≈ 1.02 µM) | 1 (≈ 2.04 µM) | 0.25 (≈ 0.511 µM) | > 10 | > 10 | 16 (≈ 32.7 µM) | > 64 | 8 (≈ 16.3 µM) | > 64 | 4 (≈ 8.17 µM) | > 64 | > 64 | 32 (≈ 65.4 µM) | > 64 | > 64 | 16 (≈ 32.7 µM) | 16 (≈ 32.7 µM) | 16 (≈ 32.7 µM) | MIC (M. hyopneumoniae Str. 11; STR.11, 144 h): 0.25 µg/mL (≈ 0.511 µM); MIC (Strep. agalactiae 2788-B): 32 µg/mL (≈ 65.4 µM); MIC (Strep. faecalis I): > 64 µg/mL; MIC [7]: 32 µg/mL (≈ 65.4 µM); MIC (Strep. spp. 64/848-C): 32 µg/mL (≈ 65.4 µM); MIC (S. typhimurium S18): > 80 µg/mL; MIC (Past. haemolytica PA5): 20 µg/mL (≈ 40.9 µM); MIC [8]: > 80 µg/mL; MIC [9]: 1.25 µg/mL (≈ 2.55 µM); MIC [10]: 2.5 µg/mL (≈ 5.11 µM); MIC (Staph. aureus Oxford [11]): 2.5 µg/mL (≈ 5.11 µM); MIC [12]: 80 µg/mL (≈ 163 µM); MIC (Strep. dysgalactiae SPD1): 10 µg/mL (≈ 20.4 µM)
2 | CC(=Cc1noc(-c2ccccc2)n1)CC1OCC(CC2OC2C(C)C(C)O)C(O)C1O (stereo not drawn) [Example 17, 3-(1-Normon-2-yl)-5-phenyl-1,2,4-oxadiazole] | 5 (≈ 11.2 µM) | 2.5 (≈ 5.62 µM) | 2.5 (≈ 5.62 µM) | 2.5 (≈ 5.62 µM) | 2.5 (≈ 5.62 µM) | 10 (≈ 22.5 µM) | > 10 | 2 (≈ 4.5 µM) | > 128 | 4 (≈ 9 µM) | > 128 | 1 (≈ 2.25 µM) | > 128 | > 128 | 16 (≈ 36 µM) | > 128 | > 128 | 4 (≈ 9 µM) | 4 (≈ 9 µM) | 4 (≈ 9 µM) | MIC (M. hyopneumoniae Str. 11; 144 h, M. hyopneumoniae Str. 11, 6 days at 37° C, read-out: MIC): 1 µg/mL (≈ 2.25 µM); MIC (Strep. agalactiae 2788-B): 8 µg/mL (≈ 18 µM); MIC (Strep. faecalis I): > 128 µg/mL; MIC [7]: 4 µg/mL (≈ 9 µM); MIC (Strep. spp. 64/848-C): 8 µg/mL (≈ 18 µM); MIC (S. typhimurium S18): > 80 µg/mL; MIC (Past. haemolytica PA5): 80 µg/mL (≈ 180 µM); MIC [8]: > 80 µg/mL; MIC [9]: 1.25 µg/mL (≈ 2.81 µM); MIC [10]: 1.25 µg/mL (≈ 2.81 µM); MIC (Staph. aureus Oxford [11]): 2.5 µg/mL (≈ 5.62 µM); MIC [12]: 20 µg/mL (≈ 45 µM); MIC (Strep. dysgalactiae SPD1): 2.5 µg/mL (≈ 5.62 µM)
